Earlier results in patent US10144913B1, “Method to increase the yield of products in plant material” (Arkansas State University-Jonesboro, priority 2012, dated 2018).

What was measured:
[1] = test system: cannabinoid receptors; details: US 20120165281
[2] = test system: rotavirus; details: rotavirus infected HT29.f8 cells; Ball et al., 2015
[3] = target: type II cannabinoid receptor (Homo sapiens, UniProt P34972); details: effect of the isoprenyl moiety; Brents et al., 2012
[4] = in vitro, compared to resveratrol; US 20120165281
[5] = in vitro, compared to resveratrol
[6] = test system: HL-60 cells; details: caspase-dependent and caspase-independent pathways, Huang et al., 2010

type II cannabinoid receptor, sequence (P34972 whole entry): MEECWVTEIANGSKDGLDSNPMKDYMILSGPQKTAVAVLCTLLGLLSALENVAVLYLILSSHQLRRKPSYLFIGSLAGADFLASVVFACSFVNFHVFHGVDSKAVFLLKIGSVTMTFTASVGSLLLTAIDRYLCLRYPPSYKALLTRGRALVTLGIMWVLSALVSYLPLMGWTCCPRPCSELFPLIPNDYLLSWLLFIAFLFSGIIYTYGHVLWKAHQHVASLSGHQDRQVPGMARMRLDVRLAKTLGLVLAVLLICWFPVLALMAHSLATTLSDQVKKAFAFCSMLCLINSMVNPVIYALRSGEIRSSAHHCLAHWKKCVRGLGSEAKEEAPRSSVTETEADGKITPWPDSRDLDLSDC

Compound: CC(C)/C=C/c1c(O)cc(/C=C/c2ccc(O)cc2)cc1O [arachidin-3]
- affinity to cannabinoid receptors [1]: have affinity
- antiviral activity (inhibiting rotavirus replication) [2]: exhibited antiviral activity
- binding affinity to type II cannabinoid receptor [3]: improved binding affinity
- metabolic profiles [4]: favorable metabolic profiles

Compound: Oc1ccc(C=Cc2cc(O)cc(O)c2)cc1 [resveratrol, reference compound]
- antiviral activity (inhibiting rotavirus replication) [2]: not observed

Compound: CC(C)/C=C/c1c(O)cc(/C=C/c2ccc(O)c(O)c2)cc1O [arachidin-1]
- affinity to cannabinoid receptors [1]: have affinity
- antiviral activity (inhibiting rotavirus replication) [2]: exhibited antiviral activity
- binding affinity to type II cannabinoid receptor [3]: improved binding affinity
- antioxidant activities [5]: higher antioxidant activities than resveratrol
- metabolic profiles [4]: favorable metabolic profiles
- anticancer activity [6]: anticancer activity
